Laboratory results as given in PMC9737648, “Novel Approaches for the Solid-Phase Synthesis of Dihydroquinazoline-2(1H)-One Derivatives and Biological Evaluation as Potential Anticancer Agents” (Molecules, 2022).

Key:
[1] = test system: human liver cancer cells (HepG-2); assay: MTT cytotoxicity assay, HepG-2; assay type: cell-based; details: Homo sapiens, HepG2, 72 h, 72-h incubation
Method: (§1) The above cells were tested for cytotoxicity to identify the most promising antitumor drug among the synthesized quinazolinone derivatives.
(§2) An MTT assay was used to evaluate the in vitro cytotoxicity of the new compounds. The MTT assay depends on the reduction of soluble 3-([…])-2,5-diphenyl-tetrazolium bromide (MTT) into a blue purple formazan product, mainly by mitochondrial reductase activity inside living cells. […] The cells were suspended in growth medium and plated in 96-well culture plates at a density of 4 × 10^4 cells/well and incubated at 37 °C in a 5% CO2 incubator. […] Each experiment was performed at least 3 times.

[2] = test system: breast cancer cells (MDA-MB-231); assay: MTT cytotoxicity assay, MDA-MB-231; assay type: cell-based, human; details: Homo sapiens, 72-h incubation
Method: as §1, §2

[3] = test system: ovarian cancer cells (A2780); assay: MTT cytotoxicity assay, A2780; assay type: cell-based, human; details: Homo sapiens, A2780, 72 h, 72-h incubation
Method: as §1, §2

[4] = test system: human hepatic stellate cells (LX-2); assay: MTT cytotoxicity assay, LX-2 normal control; assay type: cell-based; details: Homo sapiens, 72-h incubation
Method: as §1, §2

[5] = DPPH• free radical scavenging assay; details: concentration required to scavenge 50% of the DPPH; 30 min in the dark
Method: The quinazolinone derivatives were evaluated for their free radical scavenging activity at 320, 160, 80, 40, 20, and 10 µM concentration using the DPPH radical method, with ascorbic acid as the positive control (Table 3).
The antiradical activity of the compounds was estimated according to a slight modification of the procedure reported by Morales and Jimenez-Perez. […] Each sample (100 μL) at a different concentration was added to a freshly prepared solution of 1,1-diphenyl-2-picrylhydrazyl (DPPH•) radical (0.2 mM, 100 μL). The mixtures (200 μL) were placed in a 96-well microplate, shaken vigorously, and then left to stand for 30 min in the dark. Then, absorbance was immediately measured at a wavelength of 517 nm. Vc was used as the standard. The antiradical activity for each compound was determined in the Vc equivalent antioxidant capacity. The DPPH• solution in the presence of ethanol and in the absence of compounds was tested and used as a negative control. […] In all experiments, the samples were analyzed in triplicate, and activity for each compound was presented as the mean value ± SEM and used for evaluation of structure–activity relationships. […] Absorbance was taken at 520 nm using a microplate reader (Tecan, Männedorf, Switzerland).

In the case of `CN1C(=O)N(S(=O)(=O)c2ccccc2F)C(CC(N)=O)c2cc(NS(=O)(=O)c3ccccc3F)ccc21` (centres unmarked) [CA7-b′, 2-{6-[(2-fluorophenyl)sulfonamido]-3-[(2-fluorophenyl)sulfonyl]-1-methyl-2-oxo-1,2,3,4-tetrahydroquinazolin-4-yl}acetamide], the IC50 [1] is reported as 95.3 ± 5.47 µM, the IC50 [2] is reported as greater than 100 µM and the IC50 [3] is reported as greater than 100 µM. For the same compound, the IC50 [4] was greater than 100 µM and the IC50 [5] was greater than 1000 µM.
